Literature values in patent US20190060287A1 (ADARE PHARMACEUTICALS, INC., priority 2017, published 2019).
Like-named read-outs stand apart in the source and are kept apart here.

Key:
[1] = multiple dose controlled clinical studies

Clc1ccc2nsnc2c1NC1=NCCN1 [tizanidine, Tizanidine]
patients reporting that they had been drowsy during the 6 hour study (single dose 8 mg): 76%
patients reporting that they had been drowsy during the 6 hour study (single dose 16 mg): 92%
patients reporting sedation as a secondary event ([1]; patients receiving any dose of tizanidine): 48%
cases in which the sedation was rated as severe ([1]; share of the sedation cases): 10%
